{"source": "paper PMC13144739", "about": "“Global analysis of cancer cell responses to USP9X inhibition” (The EMBO Journal, 2026)", "key": {"UO-31 cells [1]": {"tested_on": "UO-31 cells", "assay": "Colony formation assay, UO-31", "assay_type": "cell-based, human", "conditions": "10 µM, 7–12 days", "protocol": "(§1) Cells were seeded at low density (200–4000 cells per well) after initial optimisation in a six-well tissue culture-treated plate (Falcon). Twenty-four hours post seeding, media was replaced, and the inhibitor was added. Cells were left to grow into colonies between 7 and 12 days, depending on the cell line. For analysis, the media was removed, and the cells were fixed with 10% (w/v) formalin for 10 min. Colonies were stained with crystal violet (Sigma-Aldrich, 0.5% [w/v] in 20% [v/v] MeOH) for 10 min and washed thrice with distilled H2O. Plates were imaged using the ChemiDoc imaging system (Bio-Rad) and analysed using the ImageJ ColonyArea plugin as described previously (Guzmán et al, [2014])."}, "UO-31 cells [2]": {"tested_on": "UO-31 cells", "assay": "Lattice light sheet imaging, UO-31", "assay_type": "cell-based, human", "conditions": "15 µM, imaged 24-48 h", "protocol": "MDA-MB-231, MiaPaca2, HMEC-1, SK-MEL-2 and UO-31 cells were seeded at 2–15 × 10^4 cells/mL in 8-well glass µ-slides (ibidi). […] SPY650-Tubulin, SPY555-DNA (both Spirochrome, Inc.), and Annexin V FITC (Sigma-Aldrich) were added at a final concentration of 1 in 1000. Cells were left to grow for 24 h before time-lapse live-cell data were acquired using a Lattice Light Sheet 7 (Zeiss). […] Aberration correction was set to a value of 170 to minimise aberrations as determined by imaging the Point Spread Function using 100 nm fluorescent microspheres. Data were collected with a frame time of 10 ms and a z step of 0.4 μm with 834 frames per 290 μm by 290 μm. Individual regions were imaged in parallel across six wells of the eight-well chamber slide. Data are presented as Maximum Intensity Projections (MIPs), and these MIPs were used for all downstream analysis. Tile regions were imaged for 24 h with 10 min intervals at 37 °C, 5% CO2. Analysis was performed using the MIPs of the different full fields of cells over the 24–48 h time period. Mitosis and mitosis arrest were classified through a combination of automated image analysis and manual validation. […] Small erroneous detected spots were further removed through a manually adjusted size filter. […] The mean intensity of all tracks was then measured to determine mitosis and mitosis arrest. […]"}, "UO-31 cells [3]": {"tested_on": "UO-31 cells", "assay": "IncuCyte live-cell imaging cell death (PI uptake), UO-31", "assay_type": "cell-based, human", "protocol": "Cells were seeded at varying densities (1000–8000 cells per well) after initial optimisation in a 96-well tissue culture-treated plate (Thermo Fisher Scientific). Cells were incubated o/n, and the next day, inhibitors and controls diluted in cell media were added to the cells to a final volume of 200 μL per well. Cell death was measured using PI (Sigma-Aldrich). Cells were imaged with four images per well every 2 h for up to 96 h using the IncuCyte live-cell analysis system (S3, Sartorius). Cell proliferation data were analysed using Microsoft Excel by normalising confluence to control conditions. For cell killing readouts, the number of PI-positive cells was normalised to the control conditions for each timepoint."}, "[4]": {"target": "T1, USP9X Δβ (USP9X β-hairpin deletion) (Homo sapiens, UniProt Q93008, DEL1924-1943)", "T1 construct": "His/SUMO (pOPIN-S vector) (N, cleaved yes); made in house; host or cells: E. coli BL21", "T1 sequence (Q93008 with tags, fused parts or gaps DEL1924-1943)": "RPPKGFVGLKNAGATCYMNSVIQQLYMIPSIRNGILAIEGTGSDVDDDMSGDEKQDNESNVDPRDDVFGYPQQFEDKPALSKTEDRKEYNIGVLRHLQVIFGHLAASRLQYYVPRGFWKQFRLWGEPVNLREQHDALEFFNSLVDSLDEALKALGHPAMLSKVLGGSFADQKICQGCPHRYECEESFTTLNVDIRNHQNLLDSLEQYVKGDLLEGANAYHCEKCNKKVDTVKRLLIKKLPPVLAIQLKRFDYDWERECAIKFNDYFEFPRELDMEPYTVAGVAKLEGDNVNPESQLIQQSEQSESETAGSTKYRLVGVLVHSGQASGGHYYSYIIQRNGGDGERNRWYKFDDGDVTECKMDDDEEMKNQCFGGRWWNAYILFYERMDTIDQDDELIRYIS", "assay": "Ub-Rho cleavage assay, USP9X Δβ variant", "assay_type": "biochemical", "from_the_text": "(§2) An expression construct for the USP9X catalytic domain (aa 1551–1970, […]: Q93008-1), was codon optimised for bacterial expression, synthesised in gBlock format (Integrated DNA Technologies) and cloned into the pOPIN-S vector (Berrow et al, [2007]), which was digested with KpnI and HindIII using In-Fusion™ HD cloning (Takara Clontech). […] For the USP9X Δβ catalytic domain a deletion construct ΔE1924-K1943 and for USP9X/USP24 chimera, a construct with USP9X Y1757-A1766 replaced with the USP24 (NCBI Reference Sequence: NP_056121) aa motif […] was used. All constructs were confirmed by Sanger sequencing (AGRF).\n(§3) The reaction was stopped through the addition of 10 mM citric acid. The assay was performed in 384-well format with a total reaction volume of 16 µL. Data was collected using the ClarioSTAR plate reader (BMG Labtech) at an emission of 535 nm. […] IC50 values presented in our study are the mean of three independent biological repeats unless indicated otherwise."}, "USP9X/USP24 chimera Δβ": {"target": "T2, USP9X/USP24 chimera Δβ (Homo sapiens, UniProt Q93008, A1766S/D1761E/DEL1924-1943/K1759R/L1762V/Y1757F)", "T2 construct": "His/SUMO (pOPIN-S vector) (N, cleaved yes); made in house; host or cells: E. coli BL21", "T2 sequence (Q93008 with tags, fused parts or gaps Y1757F/K1759R/D1761E/L1762V/A1766S/DEL1924-1943)": "as the sequence (Q93008 with tags, fused parts or gaps DEL1924-1943) above, with Y207F, K209R, D211E, L212V, A216S counted along it", "assay": "Ub-Rho cleavage assay, USP9X/USP24 chimera Δβ", "assay_type": "biochemical", "from_the_text": "as §2, §3"}, "PANC-1 cells": {"tested_on": "PANC-1 cells", "assay": "Colony formation assay, PANC-1", "assay_type": "cell-based, human", "conditions": "10 µM, 7–12 days", "protocol": "as §1"}, "USP24": {"tested_on": "T3, USP24", "T3 construct": "endogenous in cells; host or cells: MCF-7 cell lysate", "assay": "DUB IP-MS in MCF-7 cell lysates, USP24", "assay_type": "biochemical, human", "conditions": "50 µM", "protocol": "MCF-7 cells have been profiled for active DUBs previously (Pinto-Fernández et al, [2019]). Lysates were generated as described by others (Turnbull et al, [2017]) using 30 s freeze-thaw cycles (thrice) in lysis buffer (50 mM Tris [pH 7.4], 5 mM MgCl2 × 6 H2O, 0.5 mM EDTA [pH 8.0], 250 mM sucrose and 1 mM DTT) at pH 7.5. […] A pre-treatment of cell lysates with 0.5 µg Ub-VS was included for a baseline DUB response to the Ub-VS probe. 0.1 µg 3X-FLAG-Ub-VS probe was added to samples and incubated for 5 min at 37 °C. […] Samples were washed thrice with lysis buffer and eluted from the resin with lysis buffer supplemented with 1% (w/v) SDS following a 10 min incubation. Two consecutive elutions were pooled, and samples were stored at −80 °C until processing.\nDNA was hydrolysed with the addition of 2 µL neat TFA, and lysates were neutralised to pH 8.5 by the addition of 1 M Tris-HCl as previously described (Dagley et al, [2019]). Protein concentration was determined using Pierce™ BCA Protein Assay Kit (Thermo Fisher Scientific) following the manufacturer’s instructions. For DUB IP-MS, samples were processed using S-Trap spin columns (Profiti) by following the manufacturer’s instructions. […]"}}}
{"compound": "Cc1[nH]c2ccc(C(=O)N3CCN(S(=O)(=O)c4ccc5c(c4)OCCO5)CC3)cc2c1C", "note": "[WEHI-092]", "values": [{"measurement": "clonogenic potential, UO-31", "setting": "UO-31 cells [1]", "result": "sensitive"}, {"measurement": "arrested mitosis phenotype, UO-31", "setting": "UO-31 cells [2]", "result": "did not display the arrested mitosis phenotype"}, {"measurement": "cell killing of UO-31 cells (IncuCyte)", "setting": "UO-31 cells [3]", "result": "killed"}, {"measurement": "IC50", "setting": "[4]", "result": 248, "unit": "nM"}, {"measurement": "activity of USP9X/USP24 chimera Δβ in presence of compound", "setting": "USP9X/USP24 chimera Δβ", "result": "remained fully active at concentrations up to 10 µM"}, {"measurement": "clonogenic potential, PANC-1", "setting": "PANC-1 cells", "result": "strong decrease in proliferative capacity"}, {"measurement": "inhibition of USP24 in cell lysates (DUB IP-MS)", "setting": "USP24", "result": "not inhibited"}]}
